#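 Interpolation was linear, between the two tested concentrations surrounding the appropriate level; five concentrations were tested over 48 hours in 96-well plates. TGI is the concentration that stops growth completely.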
# Tests used:
# Test in all cases: DTP human tumour cell line panel, 48 h
# [1] = test system: UO-31 renal
# [2] = test system: U251 CNS
# [3] = test system: SK-MEL-5 melanoma
# [4] = test system: KM12 colon
# [5] = test system: NCI-H460 lung
# [6] = test system: TK-10 renal
# [7] = test system: A498 renal
# [8] = test system: NCI-H23 lung
# [9] = test system: SF-268 CNS
# [10] = test system: M19-MEL melanoma
# [11] = test system: SN12C renal
# [12] = test system: IGROV1 ovarian
# [13] = test system: SNB-75 CNS
# [14] = test system: MALME-3M melanoma
# [15] = test system: K-562 leukemia
# [16] = test system: UACC-62 melanoma
# [17] = test system: 786-0 renal
# [18] = test system: HCT-116 colon
# [19] = test system: EKVX NSCLC
# [20] = test system: DLD-1 colon
# [21] = test system: CCRF-CEM leukemia
# [22] = test system: A549 NSCLC
# [23] = test system: SK-OV-3 ovarian
# [24] = test system: HOP-62 NSCLC
# [25] = test system: SR leukemia
# [26] = test system: HT29 colon
# [27] = test system: SNB-19 CNS
# [28] = test system: HOP-92 NSCLC
# [29] = test system: SF-295 CNS
# [30] = test system: HCT-15 colon
# [31] = test system: LOX IMVI melanoma
# [32] = test system: SW-620 colon
# [33] = test system: UACC-257 melanoma
# [34] = test system: OVCAR-8 ovarian
# [35] = test system: SF-539 CNS
# [36] = test system: ACHN renal
# [37] = test system: SK-MEL-28 melanoma
# [38] = test system: HCC-2998 colon
# [39] = test system: SNB-78 CNS
# [40] = test system: HL-60(TB) leukemia
# [41] = test system: KM20L2 colon
# [42] = test system: RXF-631 renal
# [43] = test system: NCI-H226 lung
# [44] = test system: LXFL 529 NSCLC
# [45] = test system: MOLT-4 leukemia
# [46] = test system: OVCAR-4 ovarian
# [47] = test system: M14 melanoma
# [48] = test system: SK-MEL-2 melanoma
# [49] = test system: RPMI-8226 leukemia
# [50] = test system: CAKI-1 renal
# [51] = test system: NCI-H522 lung
# [52] = test system: RXF 393 renal
# [53] = test system: OVCAR-5 ovarian
# [54] = test system: DMS 273 small cell lung
# [55] = test system: OVCAR-3 ovarian
# [56] = test system: COLO 205 colon
# [57] = test system: XF 498 CNS
# [58] = test system: HOP-18 NSCLC
# [59] = test system: DMS 114 small cell lung
smiles,measurement,setting,value
C/C(=N\NC(=O)C(N)=O)c1c(O)cc(C)oc1=O,TGI,[1],> 100 µM
same,TGI,[2],> 100 µM
same,TGI,[3],> 100 µM
same,TGI,[4],> 100 µM
same,TGI,[5],> 100 µM
same,TGI,[6],> 100 µM
same,TGI,[7],> 100 µM
same,TGI,[8],> 100 µM
same,TGI,[9],> 100 µM
same,TGI,[10],> 100 µM
same,TGI,[11],> 100 µM
same,TGI,[12],> 100 µM
same,TGI,[13],> 100 µM
same,TGI,[14],> 100 µM
same,TGI,[15],> 100 µM
same,TGI,[16],> 100 µM
same,TGI,[17],> 100 µM
same,TGI,[18],> 100 µM
same,TGI,[19],> 100 µM
same,TGI,[20],> 100 µM
same,TGI,[21],> 100 µM
same,TGI,[22],> 100 µM
same,TGI,[23],> 100 µM
same,TGI,[24],> 100 µM
same,TGI,[25],> 100 µM
same,TGI,[26],> 100 µM
same,TGI,[27],> 100 µM
same,TGI,[28],> 100 µM
same,TGI,[29],> 100 µM
same,TGI,[30],> 100 µM
same,TGI,[31],> 100 µM
same,TGI,[32],> 100 µM
same,TGI,[33],> 100 µM
same,TGI,[34],> 100 µM
same,TGI,[35],> 100 µM
same,TGI,[36],> 100 µM
same,TGI,[37],> 100 µM
same,TGI,[38],> 100 µM
same,TGI,[39],> 100 µM
same,TGI,[40],> 100 µM
same,TGI,[41],> 100 µM
same,TGI,[42],> 100 µM
same,TGI,[43],> 100 µM
same,TGI,[44],> 100 µM
same,TGI,[45],> 100 µM
same,TGI,[46],> 100 µM
same,TGI,[47],> 100 µM
same,TGI,[48],> 100 µM
O=C(Cc1ccccc1)C(c1ccccc1)S(=O)(=O)c1ccccc1 (stereo unspecified),TGI,[49],> 100 µM
same,TGI,[1],> 100 µM
same,TGI,[2],> 100 µM
same,TGI,[3],> 100 µM
same,TGI,[4],> 100 µM
same,TGI,[5],> 100 µM
same,TGI,[6],> 100 µM
same,TGI,[7],> 100 µM
same,TGI,[50],> 100 µM
same,TGI,[8],> 100 µM
same,TGI,[9],> 100 µM
same,TGI,[10],> 100 µM
same,TGI,[11],> 100 µM
same,TGI,[12],> 100 µM
same,TGI,[13],> 100 µM
same,TGI,[14],> 100 µM
same,TGI,[15],> 100 µM
same,TGI,[16],> 100 µM
same,TGI,[17],> 100 µM
same,TGI,[51],> 100 µM
same,TGI,[18],> 100 µM
same,TGI,[19],> 100 µM
same,TGI,[20],> 100 µM
same,TGI,[21],> 100 µM
same,TGI,[22],> 100 µM
same,TGI,[23],> 100 µM
same,TGI,[24],> 100 µM
same,TGI,[52],> 100 µM
same,TGI,[25],> 100 µM
same,TGI,[26],> 100 µM
same,TGI,[27],> 100 µM
same,TGI,[53],> 100 µM
same,TGI,[28],> 100 µM
same,TGI,[29],> 100 µM
same,TGI,[30],> 100 µM
same,TGI,[31],> 100 µM
same,TGI,[32],> 100 µM
same,TGI,[33],> 100 µM
same,TGI,[54],> 100 µM
same,TGI,[55],> 100 µM
same,TGI,[56],> 100 µM
same,TGI,[34],> 100 µM
same,TGI,[35],> 100 µM
same,TGI,[36],> 100 µM
same,TGI,[37],> 100 µM
same,TGI,[38],> 100 µM
same,TGI,[57],> 100 µM
same,TGI,[39],> 100 µM
same,TGI,[40],> 100 µM
same,TGI,[41],> 100 µM
same,TGI,[42],> 100 µM
same,TGI,[43],> 100 µM
same,TGI,[44],> 100 µM
same,TGI,[58],> 100 µM
same,TGI,[45],> 100 µM
same,TGI,[46],> 100 µM
same,TGI,[47],> 100 µM
same,TGI,[59],> 100 µM
same,TGI,[48],> 100 µM
O=c1ccn(/C=C/C(O)C(O)CO)c(=O)[nH]1 (stereo unspecified),TGI,[49],> 100 µM
same,TGI,[1],> 100 µM
same,TGI,[2],> 100 µM
same,TGI,[3],> 100 µM
same,TGI,[4],40.9 µM
same,TGI,[6],> 100 µM
same,TGI,[7],> 100 µM
same,TGI,[50],> 100 µM
same,TGI,[8],> 100 µM
same,TGI,[9],> 100 µM
same,TGI,[10],> 100 µM
same,TGI,[11],> 100 µM
same,TGI,[12],> 100 µM
same,TGI,[13],> 100 µM
same,TGI,[14],> 100 µM
same,TGI,[15],> 100 µM
same,TGI,[16],> 100 µM
same,TGI,[17],> 100 µM
same,TGI,[51],> 100 µM
same,TGI,[18],> 100 µM
same,TGI,[19],> 100 µM
same,TGI,[20],> 100 µM
same,TGI,[21],> 100 µM
same,TGI,[22],> 100 µM
same,TGI,[23],> 100 µM
same,TGI,[24],> 100 µM
same,TGI,[26],> 100 µM
same,TGI,[27],> 100 µM
same,TGI,[53],> 100 µM
same,TGI,[29],> 100 µM
same,TGI,[30],> 100 µM
same,TGI,[31],> 100 µM
same,TGI,[32],> 100 µM
same,TGI,[33],> 100 µM
same,TGI,[54],> 100 µM
same,TGI,[55],> 100 µM
same,TGI,[56],> 100 µM
same,TGI,[34],> 100 µM
same,TGI,[35],> 100 µM
same,TGI,[36],> 100 µM
same,TGI,[37],> 100 µM
same,TGI,[38],> 100 µM
same,TGI,[57],> 100 µM
same,TGI,[39],> 100 µM
same,TGI,[40],> 100 µM
same,TGI,[41],> 100 µM
same,TGI,[42],> 100 µM
same,TGI,[43],> 100 µM
same,TGI,[44],> 100 µM
same,TGI,[58],> 100 µM
same,TGI,[45],> 100 µM
same,TGI,[46],> 100 µM
same,TGI,[59],> 100 µM
same,TGI,[48],> 100 µM
